{
  "source": "paper PMC10825183",
  "about": "(Nature Communications, 2024)",
  "key": {"rbHCN4 ΔE (1-733)": {"target": "T1, rbHCN4 ΔE (1-733) (Oryctolagus cuniculus, UniProt Q9TV66)", "T1 construct": "rbHCN4 ΔE (1-733); expressed in transfected cells; host or cells: HEK293T", "T1 sequence (Q9TV66 1-733)": "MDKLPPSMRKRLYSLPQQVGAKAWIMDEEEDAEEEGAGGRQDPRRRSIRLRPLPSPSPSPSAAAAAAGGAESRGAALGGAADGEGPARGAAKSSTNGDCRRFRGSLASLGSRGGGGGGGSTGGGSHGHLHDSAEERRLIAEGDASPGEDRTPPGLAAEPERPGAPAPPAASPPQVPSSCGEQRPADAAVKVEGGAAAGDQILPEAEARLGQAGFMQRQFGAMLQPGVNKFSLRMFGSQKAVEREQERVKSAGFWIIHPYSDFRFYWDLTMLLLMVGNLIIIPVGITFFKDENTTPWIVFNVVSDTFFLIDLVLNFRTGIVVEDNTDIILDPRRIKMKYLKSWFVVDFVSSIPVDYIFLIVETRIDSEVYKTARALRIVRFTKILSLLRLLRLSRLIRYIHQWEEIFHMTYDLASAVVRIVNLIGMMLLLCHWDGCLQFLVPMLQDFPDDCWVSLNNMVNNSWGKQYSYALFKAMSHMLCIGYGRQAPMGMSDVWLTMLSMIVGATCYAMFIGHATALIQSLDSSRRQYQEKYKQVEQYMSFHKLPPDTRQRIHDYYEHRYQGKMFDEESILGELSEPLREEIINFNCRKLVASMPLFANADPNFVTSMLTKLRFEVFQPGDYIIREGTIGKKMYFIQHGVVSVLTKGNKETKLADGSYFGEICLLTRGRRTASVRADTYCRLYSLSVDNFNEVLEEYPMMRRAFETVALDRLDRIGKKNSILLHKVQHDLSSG", "test": "Whole-cell patch clamp in HEK293T cells, HCN4 ΔE", "type": "cell-based, rabbit"}, "rbHCN4 full-length (FL)": {"target": "T2, rbHCN4 full-length (FL) (Oryctolagus cuniculus, UniProt Q9TV66)", "T2 construct": "The cDNA encoding the full-length rabbit HCN4 was previously cloned in pCI (Promega) mammalian expression vector; expressed in transfected cells; host or cells: HEK293T", "T2 sequence (Q9TV66 1-1175)": "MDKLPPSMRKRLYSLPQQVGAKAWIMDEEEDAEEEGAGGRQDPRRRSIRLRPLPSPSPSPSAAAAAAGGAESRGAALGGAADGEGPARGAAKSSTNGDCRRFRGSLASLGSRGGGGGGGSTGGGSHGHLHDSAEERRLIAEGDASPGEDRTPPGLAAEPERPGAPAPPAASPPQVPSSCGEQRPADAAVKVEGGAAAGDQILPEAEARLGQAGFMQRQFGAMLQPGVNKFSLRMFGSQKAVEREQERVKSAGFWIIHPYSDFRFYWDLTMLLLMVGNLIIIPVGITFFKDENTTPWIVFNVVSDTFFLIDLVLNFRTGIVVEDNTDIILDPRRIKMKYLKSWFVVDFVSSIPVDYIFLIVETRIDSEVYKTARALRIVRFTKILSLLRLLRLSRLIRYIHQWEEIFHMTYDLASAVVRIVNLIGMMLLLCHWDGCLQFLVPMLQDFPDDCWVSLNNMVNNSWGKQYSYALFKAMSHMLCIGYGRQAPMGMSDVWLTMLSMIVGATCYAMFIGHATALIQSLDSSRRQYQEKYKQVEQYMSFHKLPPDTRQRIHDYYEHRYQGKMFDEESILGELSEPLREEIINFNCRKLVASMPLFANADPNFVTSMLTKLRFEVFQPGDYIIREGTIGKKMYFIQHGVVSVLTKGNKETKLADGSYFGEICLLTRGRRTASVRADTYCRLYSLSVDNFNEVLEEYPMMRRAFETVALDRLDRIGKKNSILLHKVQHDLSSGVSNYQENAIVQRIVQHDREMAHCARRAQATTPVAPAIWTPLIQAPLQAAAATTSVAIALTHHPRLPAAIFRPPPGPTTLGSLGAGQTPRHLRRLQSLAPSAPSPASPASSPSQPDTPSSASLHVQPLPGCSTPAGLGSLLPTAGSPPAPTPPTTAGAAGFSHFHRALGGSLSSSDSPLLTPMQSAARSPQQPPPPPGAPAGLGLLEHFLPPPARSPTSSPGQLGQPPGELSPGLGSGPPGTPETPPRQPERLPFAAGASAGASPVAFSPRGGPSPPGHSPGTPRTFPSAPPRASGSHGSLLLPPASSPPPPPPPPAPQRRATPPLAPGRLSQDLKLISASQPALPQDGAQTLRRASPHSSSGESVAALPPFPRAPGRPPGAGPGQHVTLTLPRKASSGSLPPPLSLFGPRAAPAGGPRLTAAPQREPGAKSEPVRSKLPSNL", "test": "Whole-cell patch clamp in HEK293T cells, HCN4 full length", "type": "cell-based, rabbit"}, "hHCN2 CNBD D698A": {"target": "hHCN2 CNBD D698A (Homo sapiens, UniProt Q9UL51, D698A)", "sequence (Q9UL51 521-706 D698A)": "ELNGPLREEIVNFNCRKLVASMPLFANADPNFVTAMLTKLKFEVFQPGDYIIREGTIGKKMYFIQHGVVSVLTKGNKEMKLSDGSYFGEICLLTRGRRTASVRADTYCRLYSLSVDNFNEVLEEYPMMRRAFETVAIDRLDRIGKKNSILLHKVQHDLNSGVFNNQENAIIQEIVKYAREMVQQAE", "test": "biochemical"}, "hHCN2 CNBD R662A [1]": {"target": "T3, hHCN2 CNBD R662A (Homo sapiens, UniProt Q9UL51, R662A)", "T3 sequence (Q9UL51 521-706 R662A)": "as the sequence (Q9UL51 521-706 D698A) above, with R142A, A178D counted along it", "test": "biochemical"}, "rbHCN4 ΔDE’ (1-723)": {"target": "rbHCN4 ΔDE’ (1-723) (Oryctolagus cuniculus, UniProt Q9TV66)"}, "HCN4": {"test_system": "HCN4", "conditions": "cited from earlier work"}, "[2]": {"target": "isolated C-linker and CNBD", "conditions": "ref Chow et al (2012), cited from earlier work"}, "hHCN2 CNBD R662A [3]": {"target": "T3, hHCN2 CNBD R662A", "conditions": "cAMP titrant"}, "[4]": {"conditions": "5 µM cAMP in pipette, mean ± SEM"}, "[5]": {"conditions": "Hill fit of shift in V1/2 vs cAMP concentration"}, "[6]": {"conditions": "KD of individual experiments (source data Fig. 4e), cAMP titrant, unit inferred"}, "[7]": {"conditions": "KD, cAMP titrated into 20 µM CNBD, 25 °C, mean ± SEM, n = 3"}},
  "note": "Several values for one entry are separate records, joined by “and”; a condition that tells them apart may be missing. Equal entries are not always repeated. Where two headings read alike, the source gives them in different places.",
  "data": [
    {"smiles": "Nc1ncnc2c1ncn2[C@@H]1O[C@@H]2COP(=O)(O)O[C@H]2[C@H]1O", "note": "[cAMP, Adenosine 3′,5′-cyclic monophosphate]", "values": [
      {"measurement": "V1/2 with cAMP", "setting": "rbHCN4 ΔE (1-733); [4]", "value": "-97.2 ± 0.6", "unit": "mV"},
      {"measurement": "k (inverse slope factor) with cAMP", "setting": "rbHCN4 ΔE (1-733); 5 µM cAMP, mean ± SEM", "value": "9.1 ± 1.2", "unit": "mV"},
      {"measurement": "V1/2 + cAMP", "setting": "rbHCN4 ΔE (1-733); 60 µM cAMP in pipette, mean ± SEM", "value": "-81.1 ± 0.8", "unit": "mV"},
      {"measurement": "k + cAMP", "setting": "rbHCN4 ΔE (1-733); 60 µM cAMP, mean ± SEM", "value": "9.8 ± 0.8", "unit": "mV"},
      {"measurement": "Hill coefficient (nH)", "setting": "rbHCN4 ΔE (1-733); [5]", "value": 0.9},
      {"measurement": "V1/2 with cAMP", "setting": "rbHCN4 full-length (FL); 1 µM cAMP in pipette, mean ± SEM", "value": "-89.9 ± 1.6", "unit": "mV"},
      {"measurement": "k (inverse slope factor) with cAMP", "setting": "rbHCN4 full-length (FL); 1 µM cAMP, mean ± SEM", "value": "11.7 ± 1", "unit": "mV"},
      {"measurement": "V1/2 with cAMP", "setting": "rbHCN4 full-length (FL); [4]", "value": "-87.5 ± 0.7", "unit": "mV"},
      {"measurement": "k (inverse slope factor) with cAMP", "setting": "rbHCN4 full-length (FL); 5 µM cAMP, mean ± SEM", "value": "10.6 ± 0.4", "unit": "mV"},
      {"measurement": "V1/2 + cAMP", "setting": "rbHCN4 full-length (FL); 15 µM cAMP in pipette, mean ± SEM", "value": "-79.3 ± 0.9", "unit": "mV"},
      {"measurement": "k + cAMP", "setting": "rbHCN4 full-length (FL); 15 µM cAMP, mean ± SEM", "value": "10.2 ± 1", "unit": "mV"},
      {"measurement": "Hill coefficient (nH)", "setting": "rbHCN4 full-length (FL); [5]", "value": 0.9},
      {"measurement": "Kd", "setting": "hHCN2 CNBD D698A; [6]", "value": "1700 nM and 1600 nM and 1300 nM"},
      {"measurement": "Kd", "setting": "hHCN2 CNBD D698A; [7]", "value": "1500 ± 100", "unit": "nM"},
      {"measurement": "Kd", "setting": "hHCN2 CNBD D698A; KD, representative sample (Fig. 4d), cAMP titrant, single ITC experiment", "value": 1000, "unit": "nM"},
      {"measurement": "Kd", "setting": "hHCN2 CNBD R662A [1]; [6]", "value": "1080 nM and 980 nM and 1100 nM"},
      {"measurement": "Kd", "setting": "hHCN2 CNBD R662A [1]; [7]", "value": "1000 ± 30", "unit": "nM"},
      {"measurement": "V1/2 with cAMP", "setting": "rbHCN4 ΔDE’ (1-723); [4]", "value": "-95.5 ± 0.8", "unit": "mV"},
      {"measurement": "k (inverse slope factor) with cAMP", "setting": "rbHCN4 ΔDE’ (1-723); 5 µM cAMP, mean ± SEM", "value": "8.4 ± 0.1", "unit": "mV"},
      {"measurement": "Hill coefficient (nH)", "setting": "rbHCN4 ΔDE’ (1-723); [5]", "value": 1},
      {"measurement": "EC50", "setting": "HCN4; ref Baruscotti et al, 2017", "value": 1670, "unit": "nM"},
      {"measurement": "EC50", "setting": "HCN4; ref Milanesi et al, 2006", "value": 1530, "unit": "nM"},
      {"measurement": "EC50", "setting": "HCN4; ref Moller et al 2014", "value": 820, "unit": "nM"},
      {"measurement": "Kd", "setting": "[2]; read-out: binding affinity, higher affinity, protein at ~100uM or greater, predominantly tetramers", "value": 120, "unit": "nM"},
      {"measurement": "Kd", "setting": "[2]; read-out: binding affinity, lower affinity, protein at ~100uM or greater, predominantly tetramers", "value": 1500, "unit": "nM"},
      {"measurement": "Kd", "setting": "[2]; read-out: binding affinity, single lower affinity, first two helices of the C-linker removed, monomeric protein", "value": "~1800", "unit": "nM"},
      {"measurement": "Kd", "setting": "[2]; read-out: binding affinity, single lower affinity, lower protein concentrations, tetramers less frequent", "value": "~1500", "unit": "nM"},
      {"measurement": "stoichiometry (N)", "setting": "hHCN2 CNBD R662A [3]; mean ± SEM, n = 3", "value": "0.9 ± 0.1"},
      {"measurement": "N, representative sample (Fig. 4d)", "setting": "hHCN2 CNBD R662A [3]; single ITC experiment", "value": 0.7}
    ]}
  ]
}
